Test results: patent US9150788B2, “Non-amphiphile-based water-in-water emulsion and uses thereof” (Syracuse University, priority 2007, dated 2015)

How the values were obtained:
E. coli biofilm = E. coli biofilm formation on stainless steel surface; type: cell-based; settings: 60 μg/mL, non-toxic concentration
AI-2 synthesis [1] = test: AI-2 synthesis in E. coli, bioluminescence assay with reporter strain Vibrio harveyi BB 170; type: cell-based; settings: 60 μg/mL
Protocol: Biofilm formation relies on bacteria's secretion and sensing (quorum sensing) of signal molecules (called auto-inducer). […] Furanone #8 and 9 (60 μg/mL) inhibited AI-2 synthesis in E. coli 12.5- and 3.5-fold. […] 96: p. 1639-1644).

E. coli = E. coli cell growth (toxicity); type: cell-based; settings: 60 μg/mL
AI-2 synthesis [2] = settings: 100 μg/mL; cited from earlier work

| SMILES | repression of E. coli biofilm formation, % of the surface coverage (E. coli biofilm) [%] | inhibition of AI-2 synthesis in E. coli (AI-2 synthesis [1]) [fold] | E. coli cell growth (E. coli) | inhibition of AI-2 synthesis (AI-2 synthesis [2]) [fold] |
| --- | --- | --- | --- | --- |
| CC1=CC(=C(Br)Br)OC1=O [furanone #9] | 86 | 3.5 | cell growth not affected | – |
| CCCCC1=C(Br)/C(=C\Br)OC1=O [furanone #1] | – | – | – | 2 |
| O=C1O/C(=C/Br)C(Br)=C1CBr [furanone #10] | 91 | – | cell growth not affected | – |
